For 19 compounds, Ki, melting point and inhibition results are on record in patent US20050032873A1, “3-Amino chroman and 2-amino tetralin derivatives” (Wyeth, priority 2003, published 2005).

Structures can show the parent of a compound that is named as a salt.

For orientation: Ki means the dissociation constant of the complex between target and ligand, obtained from inhibition or displacement. As a reminder, the melting point is the temperature, or range, at which the solid turns liquid.

For one data set, the target named is T1, serotonin transporter (Rattus norvegicus, UniProt P31652).
T1 construct: displace ^3H-paroxetine from male rat cortical membranes; from tissue; host or cells: male rat cortical membranes
T1 sequence (P31652 whole entry): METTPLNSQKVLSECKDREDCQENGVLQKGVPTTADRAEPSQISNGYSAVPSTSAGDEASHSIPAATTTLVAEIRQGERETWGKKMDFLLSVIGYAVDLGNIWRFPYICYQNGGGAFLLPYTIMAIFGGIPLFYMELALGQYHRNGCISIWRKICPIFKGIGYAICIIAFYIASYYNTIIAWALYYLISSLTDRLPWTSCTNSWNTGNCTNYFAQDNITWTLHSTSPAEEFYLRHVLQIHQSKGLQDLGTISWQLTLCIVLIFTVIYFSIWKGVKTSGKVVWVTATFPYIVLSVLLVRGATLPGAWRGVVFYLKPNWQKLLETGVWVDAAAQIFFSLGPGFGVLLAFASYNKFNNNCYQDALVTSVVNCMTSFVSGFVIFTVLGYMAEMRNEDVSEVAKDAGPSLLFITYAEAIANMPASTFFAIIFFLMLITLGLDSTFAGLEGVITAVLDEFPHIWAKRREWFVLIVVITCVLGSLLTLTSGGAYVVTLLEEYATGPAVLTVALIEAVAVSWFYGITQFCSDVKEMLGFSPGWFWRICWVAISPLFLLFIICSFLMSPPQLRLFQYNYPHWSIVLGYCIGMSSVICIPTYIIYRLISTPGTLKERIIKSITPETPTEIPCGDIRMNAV
Description: 5-HT transporter affinity: displacement of 3H-paroxetine from male rat cortical membranes. The class given is binding. The following applies: displacement of 3H-paroxetine; male rat cortical membranes; read-out: 5-HT Transporter Affinity Ki. Background: Displacement assays read how much labelled ligand stays bound in the presence of the test substance.

Another data set deals with T2, 5-HT1A receptor (Homo sapiens, UniProt P08908).
T2 sequence (P08908 1-422): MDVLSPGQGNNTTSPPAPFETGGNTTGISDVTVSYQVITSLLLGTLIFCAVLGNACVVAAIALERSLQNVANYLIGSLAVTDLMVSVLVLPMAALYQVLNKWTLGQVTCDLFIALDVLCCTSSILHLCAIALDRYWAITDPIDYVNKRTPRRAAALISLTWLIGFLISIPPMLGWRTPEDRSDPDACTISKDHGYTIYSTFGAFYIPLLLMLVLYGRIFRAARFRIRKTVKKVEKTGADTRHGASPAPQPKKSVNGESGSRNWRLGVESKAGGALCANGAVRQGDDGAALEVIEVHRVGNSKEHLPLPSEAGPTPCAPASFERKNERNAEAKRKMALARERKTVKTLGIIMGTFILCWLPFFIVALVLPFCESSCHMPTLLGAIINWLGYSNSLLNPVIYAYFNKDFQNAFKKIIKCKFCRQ
Description: 5-HT1A receptor affinity: displacement of [3H] 8-OH-DPAT. The format is binding. On the set-up: expressed in transfected cells. The following applies: read-out: 5-HT1A Receptor Affinity, % @ 1 μM.

`COc1cccc2c(CCNC3COc4c(F)ccc(C(N)=O)c4C3)coc12` (centres unmarked) [Compound 156, 8-fluoro-3-{[2-(7-methoxy-1-benzofuran-3-yl)ethyl]amino}chromane-5-carboxamide] displayed a melting point of 172 to 174 °C. The Ki at serotonin transporter was found to be 381 nM. Moreover, the inhibition at 1 µM at 5-HT1A receptor was found to be 28%.

Regarding `O=C(O)c1cccc2c1CC(N(CCCc1c[nH]c3c(F)cc(F)cc13)C1CCC1)CO2` (centres unmarked) [Compound 137, 3-{cyclobutyl[3-(5,7-difluoro-1H-indol-3-yl)propyl]amino}chromane-5-carboxylic acid], the melting point was 130 to 131 °C. The Ki at serotonin transporter turned out to be 421 nM. Further, at 5-HT1A receptor, the inhibition at 1 µM amounted to 0%.

`CCCN(C(C)CCCc1c[nH]c2ccc(F)cc12)C1COc2c(F)ccc(C(N)=O)c2C1` (single isomer, unassigned; (-)) (as salt: hydrochloride) [Compound 14b, (−)-8-fluoro-3-[[4-(5-fluoro-1H-indol-3-yl)-1-methylbutyl](propyl)amino]chromane-5-carboxamide] gave a melting point of 147 to 150 °C.

Turning to `NC(=O)c1ccc(F)c2c1OCC(N(CCCc1c[nH]c3ccc(F)cc13)C1CCC1)C2` (centres unmarked) (as salt: hydrochloride) [Compound 122, 3-{cyclobutyl[3-(5-fluoro-1H-indol-3-yl)propyl]amino}-5-fluorochromane-8-carboxamide], the melting point was 132 °C (dec.).

`CCN(CCCCc1coc2c(OC)cccc12)C1COc2c(F)ccc(C(N)=O)c2C1` (centres unmarked) (as salt: hydrochloride) [Compound 168, 3-{ethyl[4-(7-methoxy-1-benzofuran-3-yl)butyl]amino}-8-fluorochromane-5-carboxamide] returned a melting point of 112 to 118 °C.

`CCCN(CCC(O)c1csc2ccc(F)cc12)C1COc2c(F)ccc(C(N)=O)c2C1` (centres unmarked) (as salt: hydrochloride) [Compound 17, 8-fluoro-3-[[3-(5-fluoro-1-benzothien-3-yl)-3-hydroxypropyl](propyl)amino]chromane-5-carboxamide]: the melting point is 117 °C (dec.).

Take `O=C(NCC1CC1)c1ccc(F)c2c1CC(N(CCCc1c[nH]c3ccc(F)cc13)C1CCC1)CO2` (centres unmarked) (as salt: hydrochloride) [Compound 68, 3-{cyclobutyl[3-(5-fluoro-1H-indol-3-yl)propyl]amino}-N-(cyclopropylmethyl)-8-fluorochromane-5-carboxamide]: the melting point is 114 °C (dec.).

Consider `COc1cccc2c1CC(N(CCCc1c[nH]c3ccc(F)cc13)C(C)C)CO2` (centres unmarked) (as salt: hydrochloride) [Compound 40, N-[3-(5-fluoro-1H-indol-3-yl)propyl]-N-isopropyl-N-(5-methoxy-3,4-dihydro-2H-chromen-3-yl)amine], for which the melting point was 105 °C (dec.).

In turn, `CC(CCc1c[nH]c2c(F)cc(F)cc12)N(CC1CC1)C1COc2c(F)ccc(C(N)=O)c2C1` (single isomer, unassigned) (as salt: HCl) [Compound 154a, 3-{(cyclopropylmethyl)[3-(5,7-difluoro-1H-indol-3-yl)-1-methylpropyl]amino}-8-fluorochromane-5-carboxamide] returned a melting point of 160 to 165 °C.

`COc1cccc2c1CC(N(CCCc1c[nH]c3ccc(C#N)cc13)C1CCC1)CO2` (centres unmarked) (as salt: hydrochloride) [Compound 46, 3-{3-[cyclobutyl(5-methoxy-3,4-dihydro-2H-chromen-3-yl)amino]propyl}-1H-indole-5-carbonitrile] returned a melting point of 133 to 137 °C.

As for `NC(=O)c1ccc(F)c2c1CC(N(CCCc1c[nH]c3ccc(F)cc13)CC1CC1)CO2` (centres unmarked) (as salt: hydrochloride) [Compound 5, 3-{(cyclopropylmethyl)[3-(5-fluoro-1H-indol-3-yl)propyl]amino}-8-fluorochromane-5-carboxamide], the melting point is 121 °C (dec.).

In the case of `COC(=O)c1ccc(F)c2c1C[C@H](N(CCCCc1c[nH]c3ccc(F)cc13)C1CCC1)CO2` (as salt: hydrochloride) [Compound 58a, Methyl (3S)-3-{cyclobutyl[4-(5-fluoro-1H-indol-3-yl)butyl]amino}-8-fluorochromane-5-carboxylate], the melting point was 209 °C (dec.).

For `CCCN(CCCc1c[nH]c2ccc(F)cc12)C1CCc2c(F)ccc(OC)c2C1` (single isomer, unassigned; (+)) (as salt: hydrochloride) [Compound 51a, (+)-5-fluoro-N-[3-(5-fluoro-1H-indol-3-yl)propyl]-8-methoxy-N-propyl-1,2,3,4-tetrahydro-2-naphthalenamine], the melting point was 117 °C (dec.).

As to `NC(=O)c1ccc(F)c2c1CC(NCCc1c[nH]c3ccc(F)cc13)CO2` (centres unmarked) (as salt: hydrochloride) [Compound 75, 8-fluoro-3-{[2-(5-fluoro-1H-indol-3-yl)ethyl]amino}chromane-5-carboxamide], the melting point is 134 °C (dec.).

With `CCCN(CCCCc1coc2c(OC)cccc12)[C@H]1COc2c(F)ccc(C(N)=O)c2C1` (as salt: hydrochloride) [Compound 172, (3R)-8-fluoro-3-[[4-(7-methoxy-1-benzofuran-3-yl)butyl](propyl)amino]chromane-5-carboxamide], the melting point lay within 103 to 111 °C.

As for `CCN(CCCc1c[nH]c2ccc(OC)cc12)C1COc2c(F)ccc(C(N)=O)c2C1` (centres unmarked) (as salt: hydrochloride) [Compound 105, 3-{ethyl[3-(5-methoxy-1H-indol-3-yl)propyl]amino}-8-fluorochromane-5-carboxamide], the melting point was 154 to 162 °C (dec.).

Take `COc1ccc2[nH]cc(CCCNC3COc4c(F)ccc(C(N)=O)c4C3)c2c1` (centres unmarked) (as salt: hydrochloride) [Compound 104, 8-fluoro-3-{[3-(5-methoxy-1H-indol-3-yl)propyl]amino}chromane-5-carboxamide]: the melting point is 171 to 176 °C (dec.).

Consider `CN(C)C(=O)c1ccc(F)c2c1CC(N(CCCc1c[nH]c3ccc(F)cc13)C1CCC1)CO2` (centres unmarked) (as salt: hydrochloride) [Compound 73, 3-{cyclobutyl[3-(5-fluoro-1H-indol-3-yl)propyl]amino}-8-fluoro-N,N-dimethylchromane-5-carboxamide], for which the melting point was 126 °C (dec.).

Take `CCCN(CCc1c[nH]c2ccc(F)cc12)C1CCc2cccc(OC)c2C1` (centres unmarked) (as salt: hydrochloride) [Compound 48, N-[2-(5-fluoro-1H-indol-3-yl)ethyl]-N-(8-methoxy-1,2,3,4-tetrahydronaphthalen-2-yl)-N-propylamine]: the melting point is 105 °C (dec.).
